From ChEMBL document CHEMBL1201862, “PubChem BioAssay data set” (2004)
Activity calls are given as the source filed them.

How the values were obtained:
[1] = Luminescence Cell-Based Dose Retest to Confirm Inhibitors of Cancer Stem Cells. [Related pubchem assays (depositor defined):AID2717, AID2721]; format: functional; conditions: Homo sapiens
[2] = target: Photoreceptor-specific nuclear receptor (Homo sapiens, UniProt Q9Y5X4); format: functional, cell-based;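 also: CHO-S cells with Gal4-NCOR and VP16-NR2E3 two-hybrid luciferase reporter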
[3] = intracellular Trypanosoma cruzi inhibitors in host cells – cell-based, plate reader, cherry-pick samples, set 3, dose response (AID 651818); format: functional;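 also: compounds incubated with infected cells for about four days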
[4] = system: Streptococcus sp. 'group A'; assay: growth inhibition of control SK(-) GAS strain, dose response, counter-screen for streptokinase expression inhibitor project, luminescence, kanamycin, BacTiterGlo, confirmation (AID 1900); format: functional, organism-based
[5] = target: T1, Probable nicotinate-nucleotide adenylyltransferase (Staphylococcus aureus (strain N315), UniProt P65502); format: functional, Staphylococcus aureus subsp. aureus N315;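 as to IC50 Mean: confirmatory dose-response retesting of NadD inhibitor hits first found in an ultra-high-throughput screen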
Streptokinase A = target: T2, Streptokinase A (Streptococcus pyogenes serotype M1, UniProt P10520); assay: S. pyogenes streptokinase expression inhibitors, potency, dose response, plasminogen activation absorbance, OD405 (AID 1914); format: functional, Streptococcus pyogenes M1 GAS;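 also: secreted streptokinase activity via plasminogen activation per viability signal from cell pellet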
T2 sequence (P10520 whole entry): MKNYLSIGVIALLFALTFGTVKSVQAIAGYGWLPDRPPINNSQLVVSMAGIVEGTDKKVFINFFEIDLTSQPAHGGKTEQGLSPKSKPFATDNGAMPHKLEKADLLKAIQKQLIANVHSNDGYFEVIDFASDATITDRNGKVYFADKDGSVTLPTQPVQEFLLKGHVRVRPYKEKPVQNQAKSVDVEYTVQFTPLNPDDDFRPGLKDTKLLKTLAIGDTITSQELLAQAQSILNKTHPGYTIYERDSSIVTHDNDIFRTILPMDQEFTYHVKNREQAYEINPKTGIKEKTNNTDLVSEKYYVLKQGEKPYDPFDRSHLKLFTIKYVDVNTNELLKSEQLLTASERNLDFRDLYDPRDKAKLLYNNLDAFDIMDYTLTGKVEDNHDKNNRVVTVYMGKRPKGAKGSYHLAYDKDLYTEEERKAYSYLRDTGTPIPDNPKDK

Streptococcus = assay: Group A Streptococcus viability loss, dose response, counter-screen for streptokinase expression inhibitor project, luminescence, BacTiterGlo (AID 1915); format: functional, organism-based;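 also: potency for reduction of bacterial viability or growth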
[6] = target: T1, Probable nicotinate-nucleotide adenylyltransferase; format: functional, Staphylococcus aureus subsp. aureus N315; conditions: read-out: IC50_Mean
[7] = target: T3, Adenosylmethionine-8-amino-7-oxononanoate aminotransferase (Mycobacterium tuberculosis, UniProt P9WQ81); assay: Mycobacterium tuberculosis BioA enzyme inhibitor Measured in Biochemical System Using Plate Reader - 2163-02_Inhibitor_Dose_CherryPick_Activity.; format: functional, Mycobacterium tuberculosis UT205
T3 sequence (P9WQ81 whole entry): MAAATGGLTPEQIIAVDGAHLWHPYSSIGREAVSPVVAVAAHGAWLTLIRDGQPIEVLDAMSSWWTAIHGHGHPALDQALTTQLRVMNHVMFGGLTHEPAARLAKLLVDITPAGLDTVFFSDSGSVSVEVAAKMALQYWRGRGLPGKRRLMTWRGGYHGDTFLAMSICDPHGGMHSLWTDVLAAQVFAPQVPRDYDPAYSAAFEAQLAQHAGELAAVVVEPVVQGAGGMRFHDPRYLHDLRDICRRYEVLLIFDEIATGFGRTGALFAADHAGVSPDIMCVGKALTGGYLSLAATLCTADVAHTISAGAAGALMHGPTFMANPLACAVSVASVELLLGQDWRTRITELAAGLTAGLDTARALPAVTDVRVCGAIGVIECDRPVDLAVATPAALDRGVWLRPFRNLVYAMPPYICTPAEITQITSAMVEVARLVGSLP

Steroidogenic factor 1 = Steroidogenic factor 1 (Homo sapiens, UniProt Q13285); assay: Counterscreen for inverse agonists of the liver receptor homolog-1 (LRH-1; NR5A2): Luminescence-based cell-based high throughput dose response assay to identify inverse agonists of the Steroidogenic Factor 1 Nuclear Receptor (SF1; NR5A1).; format: functional
[8] = StAR promoter reporter inhibition counter-screen, dose response, counter-screen for LRH-1 inverse agonist project, cell-based, luminescence, luciferase reporter (AID 651969); format: functional
[9] = target: Nuclear receptor subfamily 5 group A member 2 (Homo sapiens, UniProt O00482); format: functional, cell-based;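 also: HEK293T cells transfected with LRH-1 and a StAR promoter luciferase reporter; potency for inhibitors that lower LRH-1 driven reporter light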
[10] = HEp-2 cell cytotoxicity, dose response, cytotoxicity control for RSV inhibitor project, HTS (AID 2410); format: functional; conditions: human respiratory syncytial virus
[11] = MC4R antagonists, dose response, counter-screen for LGR2 antagonist project, cell-based, plate reader, cherry pick (AID 743444); format: functional;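 also: transfected HEK 293 cells stimulated with alpha-MSH peptide; potency of inhibitors of the alpha-MSH evoked signal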
[12] = target: T4, Microphthalmia-associated transcription factor (Homo sapiens, UniProt O75030); assay: TRPM1 promoter luciferase signal decrease, dose response, MITF inhibitor project, cell-based, SK-MEL-5, cherry-picked, set 3 (AID 493073); format: functional
T4 sequence (O75030 whole entry): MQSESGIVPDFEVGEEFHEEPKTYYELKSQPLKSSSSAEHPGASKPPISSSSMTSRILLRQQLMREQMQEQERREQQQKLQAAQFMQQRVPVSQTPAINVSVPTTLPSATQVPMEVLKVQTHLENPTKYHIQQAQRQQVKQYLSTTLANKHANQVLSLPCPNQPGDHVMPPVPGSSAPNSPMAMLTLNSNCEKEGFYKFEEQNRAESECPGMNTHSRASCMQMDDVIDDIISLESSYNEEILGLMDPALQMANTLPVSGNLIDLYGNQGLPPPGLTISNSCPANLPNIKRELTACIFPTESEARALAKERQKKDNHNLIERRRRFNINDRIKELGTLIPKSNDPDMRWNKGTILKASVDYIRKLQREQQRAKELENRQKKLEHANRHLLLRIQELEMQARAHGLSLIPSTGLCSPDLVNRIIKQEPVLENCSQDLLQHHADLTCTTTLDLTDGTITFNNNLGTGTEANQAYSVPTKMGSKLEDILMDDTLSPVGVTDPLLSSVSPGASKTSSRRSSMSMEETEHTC

[13] = HepG2 cell cytotoxicity, dose response, cytotoxicity control, plate reader, cherry-pick, antagonist series (AID 743416); format: functional, cell-based
[14] = Fluorescence-based cell-based high throughput dose response assay for inhibitors of the interaction of nucleotide-binding oligomerization domain containing 2 (NOD2) and the receptor-interacting serine-threonine kinase 2 (RIPK2).; format: functional; conditions: Homo sapiens
[15] = LGR2 antagonists, dose response, cell-based, HEK293, CRE-luciferase reporter, cherry pick, set 2 (AID 743343); format: functional;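 also: transfected cells were stimulated with diluted bursicon conditioned medium after compound addition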
[16] = HEK293 cell cytotoxicity, dose response, cytotoxicity control, plate reader, cherry-picked samples (AID 743446); format: functional, cell-based
[17] = A549 cell cytotoxicity, dose response, cytotoxicity control, plate reader, cherry-pick, antagonist series (AID 743412); format: functional, cell-based
[18] = target: Luciferin 4-monooxygenase (Photinus pyralis, UniProt P08659); assay: firefly luciferase enzyme inhibitors, dose response, biochemical, luminescence (AID 1891)
[19] = target: Ras and Rab interactor 1/Tyrosine-protein kinase ABL1 (Homo sapiens, UniProt P00519+Q13671); format: functional;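 also: biochemical TR-FRET dose-response test measuring inhibition of binding between Rin1 and Abl proteins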
Cytochrome P450 2C19 = Cytochrome P450 2C19 (Homo sapiens, UniProt P33261); assay: Cytochrome panel assay with activity outcomes. Panel member name: p450-cyp2c19 Compounds with AC50 equal or less than 10 uM are considered active; format: functional; conditions: read-out: AC50
Cytochrome P450 1A2 = target: T5, Cytochrome P450 1A2 (Homo sapiens, UniProt P05177);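 also: PubChem cytochrome P450 panel assay, CYP1A2 panel member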
T5 sequence (P05177 whole entry): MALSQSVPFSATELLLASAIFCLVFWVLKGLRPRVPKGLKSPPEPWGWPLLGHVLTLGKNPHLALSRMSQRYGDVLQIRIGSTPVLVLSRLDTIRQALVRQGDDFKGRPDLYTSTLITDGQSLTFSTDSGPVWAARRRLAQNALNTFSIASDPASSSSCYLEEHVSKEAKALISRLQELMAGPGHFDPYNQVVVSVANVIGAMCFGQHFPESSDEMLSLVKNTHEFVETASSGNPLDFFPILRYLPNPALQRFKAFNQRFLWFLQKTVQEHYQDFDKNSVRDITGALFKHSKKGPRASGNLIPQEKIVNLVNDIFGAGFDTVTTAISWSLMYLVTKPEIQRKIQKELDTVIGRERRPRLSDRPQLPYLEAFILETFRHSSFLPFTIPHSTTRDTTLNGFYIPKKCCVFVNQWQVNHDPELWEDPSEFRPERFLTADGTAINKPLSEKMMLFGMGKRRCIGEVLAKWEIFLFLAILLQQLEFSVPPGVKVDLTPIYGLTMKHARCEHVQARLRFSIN

[20] = Luminescence Cell-Based Dose Confirmation HTS to Identify Inhibitors of Platelet Dense Granule Release. [Related pubchem assays: 1663 (Primary HTS), 1678 (Summary of Project)]; format: functional
Cytochrome P450 3A4 = Cytochrome P450 3A4 (Homo sapiens, UniProt P08684);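 also: CYP3A4 tested as one member of a cytochrome P450 panel screen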
[21] = target: T6, Carboxy-terminal domain RNA polymerase II polypeptide A small phosphatase 1 (Homo sapiens, UniProt Q9GZU7); assay: inhibitors of CTDSP1, concentration-response testing, biochemical assay, absorbance-based, actives from ultra-high-throughput screening (AID 540297); format: functional
T6 sequence (Q9GZU7 whole entry): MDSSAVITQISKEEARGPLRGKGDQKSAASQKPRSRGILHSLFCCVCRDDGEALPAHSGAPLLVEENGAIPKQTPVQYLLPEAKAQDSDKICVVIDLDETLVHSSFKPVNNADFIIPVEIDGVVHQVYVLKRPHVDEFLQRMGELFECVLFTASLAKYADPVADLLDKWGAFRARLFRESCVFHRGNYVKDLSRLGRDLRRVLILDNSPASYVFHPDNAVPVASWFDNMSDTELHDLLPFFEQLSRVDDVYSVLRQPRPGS

[22] = target: Glucose-6-phosphate 1-dehydrogenase (Homo sapiens, UniProt P11413); assay: human G6PD enzyme inhibitors, dose response, selectivity assay for P. falciparum G6PD inhibitor project, biochemical, fluorescence (AID 504792); format: functional
INS1 = assay: beta cell apoptosis inhibitors, cytokine rescue, dose response, luminescence, retest (AID 449756); format: functional, cell-based; conditions: Rattus norvegicus;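 also: cell death triggered by IL-1 beta plus TNF-alpha plus IFN-gamma mixture; protective hits raise ATP signal compared with cytokine alone wells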
[23] = growth suppression of beta-catenin-knockout colon cells, dose response, cell-based, HCT116, human colon tumor (AID 1045); format: functional;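 also: HCT116 colon tumor cells with beta catenin knocked out; cells exposed to compound for 60 hours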
[24] = growth suppression of PTEN-null colon cells, dose response, cell-based, HCT116 PTEN knockout (AID 1047); format: functional;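 also: HCT116 colon tumor cells with PTEN knocked out; cells exposed to compound for 60 hours before readout; potency for loss of cell viability measured by luminescence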

Sequence of Steroidogenic factor 1 (Q13285 whole entry): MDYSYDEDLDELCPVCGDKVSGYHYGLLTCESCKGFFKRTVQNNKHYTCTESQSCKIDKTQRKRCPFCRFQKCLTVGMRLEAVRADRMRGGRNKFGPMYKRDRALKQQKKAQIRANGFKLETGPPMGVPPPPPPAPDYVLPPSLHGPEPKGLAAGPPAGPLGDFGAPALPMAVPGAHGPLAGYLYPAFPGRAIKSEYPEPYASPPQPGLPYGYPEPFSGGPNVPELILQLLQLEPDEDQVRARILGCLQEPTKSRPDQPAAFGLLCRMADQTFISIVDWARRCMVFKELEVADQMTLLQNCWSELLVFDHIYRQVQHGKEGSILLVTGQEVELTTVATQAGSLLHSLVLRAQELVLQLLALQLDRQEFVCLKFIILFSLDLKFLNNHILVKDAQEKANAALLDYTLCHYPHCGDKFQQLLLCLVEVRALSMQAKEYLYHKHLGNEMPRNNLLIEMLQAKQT
T1 sequence (P65502 whole entry): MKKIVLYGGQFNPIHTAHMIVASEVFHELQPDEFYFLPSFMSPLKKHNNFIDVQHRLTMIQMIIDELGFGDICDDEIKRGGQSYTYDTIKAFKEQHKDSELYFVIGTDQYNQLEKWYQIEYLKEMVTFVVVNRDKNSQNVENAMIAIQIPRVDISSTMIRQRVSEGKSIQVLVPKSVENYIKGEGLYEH
Sequence of Nuclear receptor subfamily 5 group A member 2 (O00482 whole entry): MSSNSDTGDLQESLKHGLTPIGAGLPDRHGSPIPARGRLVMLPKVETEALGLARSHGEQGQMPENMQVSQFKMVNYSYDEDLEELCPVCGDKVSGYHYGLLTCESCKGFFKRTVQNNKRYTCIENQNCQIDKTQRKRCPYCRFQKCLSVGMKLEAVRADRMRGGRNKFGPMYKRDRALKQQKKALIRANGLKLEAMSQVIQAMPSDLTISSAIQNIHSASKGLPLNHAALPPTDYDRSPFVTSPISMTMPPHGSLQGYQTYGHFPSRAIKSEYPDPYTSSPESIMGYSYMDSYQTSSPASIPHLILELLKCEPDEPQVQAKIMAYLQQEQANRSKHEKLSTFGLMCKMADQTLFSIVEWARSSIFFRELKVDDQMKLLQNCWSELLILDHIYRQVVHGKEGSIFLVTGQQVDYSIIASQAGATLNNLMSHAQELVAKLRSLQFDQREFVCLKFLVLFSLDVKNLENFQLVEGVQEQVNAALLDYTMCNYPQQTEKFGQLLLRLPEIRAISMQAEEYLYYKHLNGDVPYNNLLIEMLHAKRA
Sequence of Cytochrome P450 3A4 (P08684 whole entry, the tested form may be a part): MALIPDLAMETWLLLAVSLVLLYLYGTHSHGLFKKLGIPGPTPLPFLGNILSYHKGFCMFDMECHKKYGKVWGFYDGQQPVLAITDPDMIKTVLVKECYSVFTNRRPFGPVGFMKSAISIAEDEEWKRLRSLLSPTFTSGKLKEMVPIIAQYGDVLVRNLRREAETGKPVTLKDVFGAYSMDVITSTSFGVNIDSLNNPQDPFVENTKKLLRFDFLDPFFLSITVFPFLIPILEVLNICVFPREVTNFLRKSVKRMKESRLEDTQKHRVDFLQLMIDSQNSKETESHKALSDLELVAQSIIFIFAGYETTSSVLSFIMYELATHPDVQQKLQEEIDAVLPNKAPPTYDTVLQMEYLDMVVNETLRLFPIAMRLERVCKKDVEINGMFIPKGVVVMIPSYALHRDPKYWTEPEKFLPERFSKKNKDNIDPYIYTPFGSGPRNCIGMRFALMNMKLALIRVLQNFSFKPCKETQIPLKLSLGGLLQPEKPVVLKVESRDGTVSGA
Sequence of Cytochrome P450 2C19 (P33261 whole entry): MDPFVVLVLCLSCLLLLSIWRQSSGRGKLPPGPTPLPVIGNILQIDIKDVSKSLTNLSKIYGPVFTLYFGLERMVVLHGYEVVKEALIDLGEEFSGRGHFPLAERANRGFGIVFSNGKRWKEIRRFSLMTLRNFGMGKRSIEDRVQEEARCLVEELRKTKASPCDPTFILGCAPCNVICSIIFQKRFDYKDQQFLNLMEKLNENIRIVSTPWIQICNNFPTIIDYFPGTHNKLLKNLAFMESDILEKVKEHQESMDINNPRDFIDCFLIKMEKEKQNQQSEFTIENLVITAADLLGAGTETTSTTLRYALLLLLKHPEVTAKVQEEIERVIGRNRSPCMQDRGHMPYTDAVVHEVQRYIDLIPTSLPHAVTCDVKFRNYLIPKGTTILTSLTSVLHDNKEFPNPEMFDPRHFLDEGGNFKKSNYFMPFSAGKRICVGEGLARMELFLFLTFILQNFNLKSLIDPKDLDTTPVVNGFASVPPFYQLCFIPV
Sequence of Photoreceptor-specific nuclear receptor (Q9Y5X4 whole entry, the tested form may be a part): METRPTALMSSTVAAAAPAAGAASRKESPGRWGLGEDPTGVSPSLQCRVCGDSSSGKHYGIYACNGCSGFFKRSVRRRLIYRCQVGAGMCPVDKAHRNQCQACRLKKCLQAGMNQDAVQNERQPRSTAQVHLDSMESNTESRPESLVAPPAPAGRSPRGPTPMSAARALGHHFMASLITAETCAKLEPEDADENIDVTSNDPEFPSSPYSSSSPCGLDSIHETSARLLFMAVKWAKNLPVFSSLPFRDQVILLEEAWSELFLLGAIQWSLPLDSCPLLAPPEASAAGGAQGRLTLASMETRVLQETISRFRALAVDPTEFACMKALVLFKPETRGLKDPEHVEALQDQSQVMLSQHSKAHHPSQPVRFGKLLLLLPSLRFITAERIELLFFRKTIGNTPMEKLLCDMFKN
Sequence of Luciferin 4-monooxygenase (P08659 whole entry): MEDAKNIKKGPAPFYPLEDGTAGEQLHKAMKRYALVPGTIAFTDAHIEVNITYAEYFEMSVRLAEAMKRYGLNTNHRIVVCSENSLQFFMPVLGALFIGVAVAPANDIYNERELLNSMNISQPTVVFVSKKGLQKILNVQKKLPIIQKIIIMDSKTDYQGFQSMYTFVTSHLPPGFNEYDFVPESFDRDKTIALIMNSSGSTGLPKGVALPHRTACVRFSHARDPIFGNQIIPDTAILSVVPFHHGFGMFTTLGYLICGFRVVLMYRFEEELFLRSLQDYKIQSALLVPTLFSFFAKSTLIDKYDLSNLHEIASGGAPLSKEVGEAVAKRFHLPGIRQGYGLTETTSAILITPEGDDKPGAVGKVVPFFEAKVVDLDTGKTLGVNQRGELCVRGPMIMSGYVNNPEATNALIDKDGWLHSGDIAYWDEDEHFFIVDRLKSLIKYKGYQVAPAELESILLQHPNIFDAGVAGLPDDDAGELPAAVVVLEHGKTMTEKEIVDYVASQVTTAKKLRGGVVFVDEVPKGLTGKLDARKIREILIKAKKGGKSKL
Sequence of Glucose-6-phosphate 1-dehydrogenase (P11413 whole entry): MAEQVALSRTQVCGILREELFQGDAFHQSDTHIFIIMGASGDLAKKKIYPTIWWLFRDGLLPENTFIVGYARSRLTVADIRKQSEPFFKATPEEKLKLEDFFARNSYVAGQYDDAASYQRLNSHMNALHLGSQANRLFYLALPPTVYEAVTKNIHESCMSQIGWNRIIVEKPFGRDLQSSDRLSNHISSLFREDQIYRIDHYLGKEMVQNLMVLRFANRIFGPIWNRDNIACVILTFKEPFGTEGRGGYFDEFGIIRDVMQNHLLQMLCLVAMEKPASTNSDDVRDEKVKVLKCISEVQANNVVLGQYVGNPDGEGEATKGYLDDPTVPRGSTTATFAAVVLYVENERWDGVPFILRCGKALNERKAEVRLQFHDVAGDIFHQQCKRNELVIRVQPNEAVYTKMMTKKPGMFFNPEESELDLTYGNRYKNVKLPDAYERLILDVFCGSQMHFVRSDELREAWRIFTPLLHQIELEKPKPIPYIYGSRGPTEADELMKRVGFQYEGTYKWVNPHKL

## N#Cc1c(-c2ccccc2)cc(-c2ccccc2)nc1SCCC(=O)O
[1]
  AC50: 1.6 µM (active)
[2]
  IC50: 12.7 µM (inactive)

## C[C@@H]1CN([C@@H](C)CO)C(=O)c2cccc(NC(=O)CCCCCC(=O)Nc3ccccc3N)c2O[C@H]1CN(C)CC1CCCCC1
[3]
  AC50: 3.58 µM (active)

## Cc1nn(-c2ccc(Cl)cc2)c(Cl)c1/C=N/NC(=O)c1ccc(NS(=O)(=O)c2cccs2)cc1
[4]
  EC50: 1.53 µM (active)
[5]
  IC50: 7.71 µM (active)
Streptokinase A
  EC50: > 150 µM (not active)
Streptococcus
  EC50: 5.2 µM (active)
[6]
  IC50: 27.4 µM (active)

## O=C(NC1CCCc2c1cnn2-c1cc(F)cc(F)c1)c1ccc[n+]([O-])c1 (configuration not stated)
[7]
  AC50: 4.29 µM (active)

## C[C@H](CO)N1C[C@H](C)[C@H](CN(C)Cc2ccc(C(=O)Nc3ccccc3N)cc2)Oc2ccc(NS(=O)(=O)c3ccc(Cl)cc3)cc2CC1=O
[3]
  AC50: 1.91 µM (active)

## COC(=O)C1CCN(C(c2ccc(OC)c(OC)c2)c2sc3nc(C)nn3c2O)CC1 (configuration not stated)
[7]
  AC50: 17.4 µM (active)

## COc1cc(OC)cc(-c2oc3cccnc3c2C#CCCO)c1
Steroidogenic factor 1
  IC50: 0.443 µM (active)
[8]
  IC50: 27.3 µM (inactive)
[9]
  IC50: 1.87 µM (active)

## O=S(=O)(c1cccc(Cl)c1)N1CCCC(c2nc(O)c3nnn(Cc4ccc5c(c4)OCCO5)c3n2)C1 (configuration not stated)
[5]
  IC50: 9.91 µM (active)
[10]
  CC50: 11.3 µM (active)
cells
  IC50: 10.3 µM (active)
[6]
  IC50: 30.5 µM (active)

## C[C@@H]1CN([C@H](C)CO)C(=O)Cc2cc(NS(=O)(=O)c3ccc(Cl)cc3)ccc2O[C@@H]1CN(C)S(=O)(=O)c1ccc(F)cc1
[3]
  AC50: 7.57 µM (active)

## Cc1cc(Br)ccc1NC(=O)CNC(=O)Cn1ncc(Cl)c(Cl)c1=O
[11]
  AC50: 5.41 µM (active)
[12]
  AC50: 7.47 µM (active)
[13]
  AC50: > 52 µM (inactive)
[14]
  IC50: 1.84 µM (active)
[15]
  AC50: 4.51 µM (active)
[16]
  AC50: 4.54 µM (active)
[17]
  AC50: 3.92 µM (active)

## CCOC(=O)N1CCC(NC(=O)CCc2nc(C3=CCN(C)CC3)no2)CC1
[18]
  EC50: > 112 µM (not active)
[19]
  IC50: 5.11 µM (active)
Cytochrome P450 2C19
  AC50: 11.2 µM (inconclusive)
Cytochrome P450 1A2
  AC50: 1 µM (inconclusive)
[20]
  EC50: > 112 µM (not active)
Cytochrome P450 3A4
  AC50: 25.1 µM (inconclusive)

## COC(=O)c1ccc(NC(=O)COc2cccc(-n3cnnn3)c2)cc1
Steroidogenic factor 1
  IC50: 35.9 µM (inactive)
[8]
  IC50: 35.9 µM (inactive)
[9]
  IC50: 35.9 µM (inactive)

## Cc1noc(C)c1NC(=O)N(C)C[C@@H]1Oc2c(NC(=O)c3ccncc3)cccc2C(=O)N([C@H](C)CO)C[C@@H]1C
[5]
  IC50: 27.3 µM (active)
[21]
  IC50: 7.66 µM (active)
[6]
  IC50: 38.7 µM (active)

## CCC(CO)N1C(C)=CC(=Cc2sc3ccccc3[n+]2Cc2ccccc2)C=C1C (configuration not stated)
[22]
  IC50: > 80 µM (inactive)
[7]
  AC50: 2.73 µM (active)
INS1
  AC50: 0.613 µM (active)
[23]
  EC50: 0.775 µM (active)
[24]
  EC50: 1.19 µM (active)

## CCOC(=O)c1c(SCCN2CCCC2)n(-c2ccccc2)c(=S)n(-c2ccccc2)c1=O
[14]
  IC50: 1.09 µM (active)

## CCCN(CC(=O)Nc1ccccc1C)CC(=O)Nc1ccc(Br)cc1F
Steroidogenic factor 1
  IC50: 1.33 µM (active)
[8]
  IC50: 35.1 µM (inactive)
[9]
  IC50: 10.6 µM (inactive)
